According to patent EP0465096A1, “Plasma cholesterol level lowering composition” (MERCK & CO. INC., priority 1990, dated 1992):
Marks after values point to notes of the source that are not given here.

Test system: dogs
Assay: Plasma cholesterol lowering in dogs, oral bolus (rapid release) vs 24 h gastric infusion (Example 1)
Format: in vivo
Conditions: ammonium salt, 10 mg/kg/day for 28 days, vs pre-dosing level
Description: 7-[1,2,6,7,8,8a(R)-hexahydro-2(S),6(R)-dimethyl-8(S)-(2,2-dimethylbutyryloxy)-naphthalenyl-1(S)]-3(R),5(R)-dihydroxyheptanoic acid, an HMG-CoA reductase inhibitor which is the ring opened dihydroxy acid of simvastatin, was administered to dogs as the ammonium salt as either an oral bolus dose (rapid release) or as a continuous gastric infusion over 24 hours (simulated controlled release). In both cases, each dog received a dose of 10 mg/kg/day for 28 days of the above named HMG-CoA reductase inhibitor. Plasma cholesterol was determined throughout the entire study and drug-treatment levels compared to control cholesterol levels (pre-dosing) for each dog. Circulating plasma levels of the above named HMG-CoA reductase inhibitor were determined on Day 16 of each drug dosing period.

## CCC(C)(C)C(=O)O[C@H]1C[C@@H](C)C=C2C=C[C@H](C)[C@H](CC[C@@H](O)C[C@@H](O)CC(=O)O)[C@H]21 [7-[1,2,6,7,8,8a(R)-hexahydro-2(S),6(R)-dimethyl-8(S)-(2,2-dimethylbutyryloxy)-naphthalenyl-1(S)]-3(R),5(R)-dihydroxyheptanoic acid]
Continuous gastric infusion over 24 hours (simulated controlled release), mean ± SD, n = 4 dogs
  Mean Maximum Reduction In Plasma Cholesterol: 60 ± 4.0^b percent
Oral bolus dose (rapid release), n = 1 dog
  Mean Maximum Reduction In Plasma Cholesterol: 31^a percent
